Counter-ions that a name gives are not always drawn.
Key:
P.C.A. reaction = test: Passive cutaneous anaphylaxis (P.C.A.) in rats sensitized with homologous hyperimmune antiserum; assay type: in vivo; details: iv, rat, intravenously 30 seconds before antigen, read-out: ED50 (inhibitory effect of P.C.A. reaction)
Method: (b) Rat hyperimmune antiserum against egg albumin
Male Sprague-Dawley JCL strain rats were injected in the four foot pads with 10 mg of egg albumin emulsified in 0.5 ml of saline and 0.5 ml of Freund's complete adjuvant in divided portions. Seven days later, the animals were injected intramuscularly at three sites on a shaved area of their backs with a total of 5 mg of egg albumin emulsified in 0.5 ml of saline and 0.5 ml of Freund's complete adjuvant. On days 28 to 30, the animals were injected intracutaneously at two sites on the back with 0.2 mg of egg albumin in 0.2 ml of saline. The antiserum was obtained 7 days after the last injection and stored at -20° C.
(3) Passive cutaneous anaphylaxis (P.C.A.) in rats sensitized with homologous hyperimmune antiserum
P.C.A. reaction was performed in male Sprague-Dawley JCL strain rats passively sensitized with homologous hyperimmune antiserum against egg albumin. That is, 0.1 ml of the antiserum was injected into the skin on the back of rats, and 4 hours later 1 ml of mixture of egg albumin 5 mg and Evans' blue 5 mg was injected intravenously. One hour later, the animals were killed and the skin was removed. Evans' blue was then extracted from the sensitized spot with 10 ml of 4:1 mixture of aceton and 2% solution of RBS-25. The quantity of Evans' blue was determined by colorimetry at 620 mμ. The drug was given intravenously 30 seconds before dosing with antigen.

Acute toxicity in mouse = details: in vivo, po; female mouse, orally, seven days
Method: (§1) (6) Acute toxicity in mouse and rat
(§2) Each ten male and female ICR-JCL strain mice and Sprague-Dawley-JCL strain rats were used for each dose.
(§3) Test compound was given to animals in a form of suspension in 0.5% methyl cellose orally. After administration, the incidence of the death was recorded for successive seven days. LD50 values were calculated by the method of Lichfield-Wilcoxon method.

[1] = test system: anaphylactic bronchoconstriction; test: Anaphylactic bronchoconstriction in guinea-pigs sensitized with homologous antiserum; assay type: in vivo; details: Cavia porcellus, iv; guinea-pig; intravenously 30 seconds before antigen
Method: (c) Guinea-pig antiserum against egg albumin
Five mg of egg albumin emulsified in 0.5 ml of physiological saline and 0.5 ml of Freund's incomplete adjuvant was used as the antigen.
The emulsion was given subcutaneously in a single dose of 1 ml divided equally (0.25 ml) to the four foot pads of male Hartly strain guinea pigs, each weighing 250 to 300 g. Starting two weeks after dosing with the aforementioned emulsion 0.1% egg albumin emulsified in physiological saline was given subcutaneously in equally divided (0.1 ml) doses of 0.4 ml once a week for 4 weeks to four sites on the backs of the test animals. Blood samples were collected from the carotid artery one week after the last injection, and centrifuged at 3000 r.p.m. at room temperature for 15 minutes. The antisera thus obtained were stored at -20° C.
(4) Anaphylactic bronchoconstriction in guinea-pigs sensitized with homologous antiserum
Male Hartly strain guinea-pigs were sensitized with an intravenous injection of 1 ml of homologous antiserum against egg albumin. And 48 hours later, the animals were immobilized with an intraperitoneal dose of 100 mg/kg of gallamine. The trachea was cannulated for artificial respiration which was performed with a miniature respiratory pump (3 ml/stroke, 60 strokes/minute). […]

Acute toxicity in rat = details: in vivo, po; female rat, orally, seven days
Method: as §1, §2, §3

[2] = test system: passive cutaneous anaphylaxis (P.C.A.); test: Antagonism to passive cutaneous anaphylaxis (P.C.A.) in rat sensitized with homologous reaginic antiserum; assay type: in vivo; details: test compound given orally 2 hours and intravenously 5 minutes before antigen
Method: (a) Rat reaginic antiserum against egg albumin
One mg of egg albumin emulsified in 0.5 ml of B. pertussisdiphtheria mixed vaccine (Tanabe Seiyaku Company Ltd.) and 0.5 ml of Freund's incomplete adjuvant (Difco) was used as the antigen. The emulsion was given subcutaneously in a single dose of 1 ml divided equally (0.25 ml) to the four foot pads of male Sprague-Dawley JCL strain rats aged 6 weeks, each weighing 170-220 g. Blood samples were collected from the femoral artery 12 days after injection, and centrifuged at 3000 r.p.m. at 4° C. for 15 minutes. The antisera thus obtained were stored at -20° C.
(2) Antagonism to passive cutaneous anaphylaxis (P.C.A.) in rat sensitized with homologous reaginic antiserum
Ten male Sprague-Dawley-JCL strain rats, weighing 290-310 g were used for each dose. The rat reaginic antiserum against egg albumin was used at a dilution 1:4. The animals were sensitized with 0.1 ml of the antiserum injected intracutaneously on the depilated backs of the rats. […] It was further centrifuged at 2000 r.p.m. for 15 minutes and the quantity of the dye in the supernatant solution was determined by colorimetry at 620 mμ. […] The inhibitory effect of test compound was determined from the dye amounts measured in comparison with the control group and the treated group and the ED50 value was calculated according to Litchfield-Wilcoxon method.

histamine = test: Antagonistic effect on histamine in vitro (isolated guinea-pig ileum); details: histamine 1.0 × 10^-7 g/ml
Method: (5) Antagonistic effect on histamine in vitro
The ileum was connected to a strain gauge transducer and the contractions were recorded isometrically.

SMILES	ED50 (P.C.A. reaction)	LD50 at 168 h (Acute toxicity in mouse)	ED50 [1]	LD50 at 168 h (Acute toxicity in rat)	ED50 [2]	Percentage inhibition of histamin (histamine; 1.0 × 10^-5 g/ml test compound)	Percentage inhibition of histamin (histamine; 1.6 × 10^-4 g/ml test compound)	Percentage inhibition of histamin (histamine; 4.0 × 10^-5 g/ml test compound)	Percentage inhibition of histamin (histamine; 8.0 × 10^-5 g/ml test compound)
O=C(Cn1c(=O)sc2ccc(Cl)cc21)N1CCNCC1 [Compound A, 3-(1-piperazinyl)carbonylmethyl-5-chloro-2-benzothiazolinone]	9 mg/kg	219 mg/kg	56 mg/kg	734 mg/kg	50 mg/kg	14%	82%	48%	59%
O=C(Cn1c(=O)sc2ccc(Cl)cc21)N1CCN(CCO)CC1 [Compound B, 3-[4-(2-hydroxyethyl)-1-piperazinylcarbonylmethyl]-5-chloro-2-benzothiazolinone hydrochloride]	28 mg/kg								
O=C(Cn1c(=O)sc2ccc(Cl)cc21)N1CCC(O)CC1 [Compound C, 3-(4-hydroxypiperidino)carbonylmethyl-5-chloro-2-benzothiazolinone]	32 mg/kg								
O=C(O)c1cc(=O)c2c(OCC(O)COc3cccc4oc(C(=O)O)cc(=O)c34)cccc2o1 [Compound D, disodium chromoglycate, reference compound]	105 mg/kg					2%	1%	4%	

Source: patent US4279909A, “Antiallergic method” (Fujisawa Pharmaceutical Co., Ltd., priority 1980, dated 1981)
